This is an account of results in US20230000773A1, “NOVEL HEADGROUP LIPID COMPOUNDS AND COMPOSITIONS FOR INTRACELLULAR DELIVERY OF THERAPEUTIC AGENTS” (ModernaTX, Inc., priority 2019, published 2023).

Series [1] in a line: Surface hydrophobicity by Generalized Polarization by Laurdan (GPL). Format: physicochemical. To be noted: normalized Generalized Polarization by Laurdan; higher N-GP = less polar surface. From the text:
(§1) Nanoparticle compositions including a therapeutic and/or prophylactic can be optimized according to the selection of a compound according to Formula (I), (I-1), (A), (A-1), (A-1a), or (A-1b), the selection of additional lipids, the amount of each lipid in the lipid component, and the wt:wt ratio of the lipid component to the therapeutic and/or prophylactic. Nanoparticle compositions including DSPC as a phospholipid, cholesterol as a structural lipid, PEG 2 as a PEG lipid, and a compound according to Formula (I), (I-1), (A), (A-1), (A-1a), or (A-1b) were prepared. The ratios of the lipids were 50:10:38:2 mol % for the lipid according to Formula (I), (I-1), (A), (A-1), (A-1a), or (A-1b):DSPC:cholesterol:PEG 2.
Laurdan, a fluorescent aminonaphthalene ketone lipid, was post-inserted into the nanoparticle surface and the fluorescence spectrum of Laurdan was collected to determine the normalized Generalized Polarization (N-GP). Higher N-GP indicates a less polar surface.

Series [2] in a line: Encapsulation efficiency (% EE), ribogreen. Format: physicochemical. To be noted: nanoparticles, compound:DSPC:cholesterol:PEG 2 50:10:38:2 mol %.
Source text: The efficiency of encapsulation of a therapeutic and/or prophylactic describes the amount of therapeutic and/or prophylactic that is encapsulated or otherwise associated with a lipid nanoparticle (e.g., an empty LNP or a loaded LNP) after preparation, relative to the initial amount provided. The encapsulation efficiency is desirably high (e.g., close to 100%). The encapsulation efficiency may be measured, for example, by comparing the amount of therapeutic and/or prophylactic in a solution containing the lipid nanoparticle (e.g., an empty LNP or a loaded LNP) before and after breaking up the lipid nanoparticle (e.g., an empty LNP or a loaded LNP) with one or more organic solvents or detergents. Fluorescence may be used to measure the amount of free therapeutic and/or prophylactic (e.g., RNA) in a solution.
as §1, with “2. […]” for “2.”

The nature of series [3]: Heparin-sepharose binding of nanoparticles.
A short description of series [4]: Apparent LNP pKa by 2-(p-toluidino)-6-napthalene sulfonic acid (TNS) assay. It is filed as physicochemical. To be noted: pH at half of maximum fluorescence.
A short description of series [5]: Size and polydispersity index of nanoparticles comprising compounds of the disclosure. Format: physicochemical. To be noted: compound:DSPC:cholesterol:PEG 2 50:10:38:2 mol %.
Source text: Lipid nanoparticles (e.g., empty LNPs or loaded LNPs) may be characterized by a variety of methods. For example, microscopy (e.g., transmission electron microscopy or scanning electron microscopy) may be used to examine the morphology and size distribution of a nanoparticle composition. Dynamic light scattering or potentiometry (e.g., potentiometric titrations) may be used to measure zeta potentials. Dynamic light scattering may also be utilized to determine particle sizes. Instruments such as the Zetasizer Nano ZS (Malvern Instruments Ltd, Malvern, Worcestershire, UK) may also be used to measure multiple characteristics of a nanoparticle composition, such as particle size, polydispersity index, and zeta potential.
as §1, with “2. […]” for “2.”

The test system of the next series is hEPO mRNA. In words: hEPO expression in CD1-mice after intravenous administration of nanoparticles. It is filed as in vivo. To be noted: 6 h after intravenous administration, mRNA dose 0.5 mg/kg, N:P 3.4, compound:DSPC:cholesterol:PEG 2 50:10:38:2. How it is done:
The expression of hEPO mRNA in CD1-mice was measured 6 h after intravenous administration of nanoparticles comprising a compound of the disclosure, DSPC, cholesterol, and PEG 2 in a ratio of 50:10:38:2. […] Each composition was dosed to 8 animals at an mRNA dose of 0.5 mg/kg.

For `CCCCCCCCC(CC)OC(=O)CCCCCCCN(CCCCCCCC(=O)OC(CCCCCCCC)CCCCCCCC)CCCNS(=O)(=O)NC` (stereo not shown) [Compound 59, Heptadecan-9-yl 8-((3-((N-methylsulfamoyl)amino)propyl)(8-oxo-8-(undecan-3-yloxy)octyl)amino)octanoate], in series [1], the “Average N-GP” value worked out at 0.762. Besides, the “% EE (ribogreen)” value in series [2] worked out at 98.3%. Moreover, the “Relative % Area Bound by LNP” value in series [3] is given as 0%. Moreover, the “LogIC50 (pKa)” value in series [4] was determined as 6.74. Further, in series [5], the PDI is 0.16 and the “Size (nm)” value turned out to be 72.7 nm. Besides, in the series with hEPO mRNA, the “Avg. [hEPO] mIU/mL” value came out at 2.49E+05 mIU/mL.
With `CCCCCCCCC(CC)OC(=O)CCCCCCCN(CCCCCCCC(=O)OC(CCCCCCCC)CCCCCCCC)CCCNS(=O)(=O)c1ccn(C)n1` (stereo not shown) [Compound 68, Heptadecan-9-yl 8-((3-((1-methyl-1H-pyrazole)-3-sulfonamido)propyl)(8-oxo-8-(undecan-3-yloxy)octyl)amino)octanoate], the “Average N-GP” value in series [1] amounted to 0.822. Besides, the “% EE (ribogreen)” value in series [2] amounted to 96.6%. Besides, in series [3], the “Relative % Area Bound by LNP” value turned out to be 1.12%. Moreover, the “LogIC50 (pKa)” value in series [4] was found to be 6.71. Also, in series [5], the PDI amounted to 0.109 and the “Size (nm)” value worked out at 63.2 nm. The “Avg. [hEPO] mIU/mL” value in the series on hEPO mRNA was 4.29E+05 mIU/mL.
For the compound `CCCCCCCCC(CC)OC(=O)CCCCCCCN(CCCCCCCC(=O)OC(CCCCCCCC)CCCCCCCC)CCCNc1ncncc1NC` (stereo not shown) [Compound 35, Heptadecan-9-yl 8-((3-((5-(methylamino)pyrimidin-4-yl)amino)propyl)(8-oxo-8-(undecan-3-yloxy)octyl)amino)octanoate], in series [1], the “Average N-GP” value is listed as 0.888. In series [2], the “% EE (ribogreen)” value is given as 96%. For the same compound, in series [3], the “Relative % Area Bound by LNP” value turned out to be 2.90%. In addition, the “LogIC50 (pKa)” value in series [4] is reported as 7.27. In series [5], the PDI was 0.176 and the “Size (nm)” value is listed as 91.2 nm. Further, in the series with hEPO mRNA, the “Avg. [hEPO] mIU/mL” value was found to be 3.71E+05 mIU/mL.
Take `CCCCCCCCC(CC)OC(=O)CCCCCCCN(CCCCCCCC(=O)OC(CCCCCCCC)CCCCCCCC)CCCNS(C)(=O)=O` (stereo not shown) [Compound 65, Heptadecan-9-yl 8-((3-(methylsulfonamido)propyl)(8-oxo-8-(undecan-3-yloxy)octyl)amino)octanoate]: the “Average N-GP” value in series [1] worked out at 0.713. Besides, the “% EE (ribogreen)” value in series [2] came to 96.8%. In addition, the “Relative % Area Bound by LNP” value in series [3] was 4.86%. The “LogIC50 (pKa)” value in series [4] came out at 6.81. In addition, in series [5], the PDI was determined as 0.155 and the “Size (nm)” value turned out to be 73.2 nm. Also, the “Avg. [hEPO] mIU/mL” value in the series with hEPO mRNA was 3.64E+05 mIU/mL.
Consider `CCCCCCCCC(CC)OC(=O)CCCCCCCN(CCCCCCCC(=O)OC(CCCCCCCC)CCCCCCCC)CCCNC1=CC(=O)NC1` (stereo not shown) [Compound 45, Heptadecan-9-yl 8-((3-((5-oxo-2,5-dihydro-1H-pyrrol-3-yl)amino)propyl)(8-oxo-8-(undecan-3-yloxy)octyl)amino)octanoate], for which the “Average N-GP” value in series [1] came out at 0.655. For the same compound, in series [2], the “% EE (ribogreen)” value amounted to 98.5%. The “Relative % Area Bound by LNP” value in series [3] is 31.46%. Moreover, the “LogIC50 (pKa)” value in series [4] amounted to 6.85. In series [5], the PDI turned out to be 0.141 and the “Size (nm)” value turned out to be 81.8 nm. Besides, in the series on hEPO mRNA, the “Avg. [hEPO] mIU/mL” value was 1.15E+05 mIU/mL.
As to `CCCCCCCCC(CC)OC(=O)CCCCCCCN(CCCCCCCC(=O)OC(CCCCCCCC)CCCCCCCC)CCCNC(=O)c1ccc2c(c1)B(O)OC2` (stereo not shown) [Compound 62, Heptadecan-9-yl 8-((3-(1-hydroxy-1,3-dihydrobenzo[c][1,2]oxaborole-6-carboxamido)propyl)(8-oxo-8-(undecan-3-yloxy)octyl)amino)octanoate], in series [1], the “Average N-GP” value is 0.890. The “% EE (ribogreen)” value in series [2] is 28.3%. For the same compound, in series [3], the “Relative % Area Bound by LNP” value is 3.99%. Further, the “LogIC50 (pKa)” value in series [4] came out at 6.80. Further, in series [5], the PDI was 0.233 and the “Size (nm)” value was determined as 124.3 nm. For the same compound, in the series on hEPO mRNA, the “Avg. [hEPO] mIU/mL” value is 1.60E+05 mIU/mL.
`CCCCCCCCC(CC)OC(=O)CCCCCCCN(CCCCCCCC(=O)OC(CCCCCCCC)CCCCCCCC)CCCNS(C)(=N)=O` (stereo not shown) [Compound 58, Heptadecan-9-yl 8-((3-(methylsulfonoamidimidamido)propyl)(8-oxo-8-(undecan-3-yloxy)octyl)amino)octanoate]: the “Average N-GP” value in series [1] is 0.493. Moreover, the “% EE (ribogreen)” value in series [2] is on record as 98.6%. Also, the “Relative % Area Bound by LNP” value in series [3] was determined as 47.35%. For the same compound, the “LogIC50 (pKa)” value in series [4] was 7.05. In series [5], the PDI came out at 0.142 and the “Size (nm)” value came out at 86.9 nm. The “Avg. [hEPO] mIU/mL” value in the series on hEPO mRNA came to 9.03E+04 mIU/mL.
For the compound `CCCCCCCCC(CC)OC(=O)CCCCCCCN(CCCCCCCC(=O)OC(CCCCCCCC)CCCCCCCC)CCCNS(=O)(=O)c1ncc[nH]1` (stereo not shown) [Compound 69, Heptadecan-9-yl 8-((3-(1H-imidazole-2-sulfonamido)propyl)(8-oxo-8-(undecan-3-yloxy)octyl)amino)octanoate], the “Average N-GP” value in series [1] stood at 0.812. Besides, the “% EE (ribogreen)” value in series [2] is 97%. For the same compound, in series [3], the “Relative % Area Bound by LNP” value was 0.93%. The “LogIC50 (pKa)” value in series [4] came out at 6.56. In series [5], the PDI is 0.108 and the “Size (nm)” value was determined as 66.8 nm. The “Avg. [hEPO] mIU/mL” value in the series with hEPO mRNA was 2.61E+05 mIU/mL.
With `CCCCCCCCC(CC)OC(=O)CCCCCCCN(CCCCCCCC(=O)OC(CCCCCCCC)CCCCCCCC)CCCNC1=NCC(=O)N1` (stereo not shown) [Compound 57, Heptadecan-9-yl 8-((3-((4-oxo-4,5-dihydro-1H-imidazol-2-yl)amino)propyl)(8-oxo-8-(undecan-3-yloxy)octyl)amino)octanoate], the “Average N-GP” value in series [1] amounted to 0.582. The “% EE (ribogreen)” value in series [2] worked out at 98.2%. For the same compound, the “Relative % Area Bound by LNP” value in series [3] worked out at 1.09%. Further, the “LogIC50 (pKa)” value in series [4] amounted to 6.52. In series [5], the PDI was 0.132 and the “Size (nm)” value came to 58.8 nm. In the series with hEPO mRNA, the “Avg. [hEPO] mIU/mL” value is given as 4.21E+04 mIU/mL.
`CCCCCCCCC(CC)OC(=O)CCCCCCCN(CCCCCCCC(=O)OC(CCCCCCCC)CCCCCCCC)CCCNS(=O)(=O)CCOCc1ccccc1` (stereo not shown) [Compound 63, Heptadecan-9-yl 8-((3-((2-(benzyloxy)ethyl)sulfonamido)propyl)(8-oxo-8-(undecan-3-yloxy)octyl)amino)octanoate]: in series [1], the “Average N-GP” value was 0.866. The “% EE (ribogreen)” value in series [2] stood at 37.7%. Further, in series [3], the “Relative % Area Bound by LNP” value was found to be 6.25%. The “LogIC50 (pKa)” value in series [4] is given as 6.41. For the same compound, in series [5], the PDI is listed as 0.273 and the “Size (nm)” value is reported as 126.4 nm. The “Avg. [hEPO] mIU/mL” value in the series on hEPO mRNA was 1.90E+05 mIU/mL.
